Reference: ChEMBL document CHEMBL1146803, “Structure activity studies of ring E analogues of methyllycaconitine. Part 2: Synthesis of antagonists to the alpha3beta4* nicotinic acetylcholine receptors through modifications to the ester” (Bioorg Med Chem Lett, 2004)

molecular target: Neuronal acetylcholine receptor subunit alpha-7 (Homo sapiens, UniProt P36544); test: Affinity for nicotinic acetylcholine receptor alpha7
Sequence (P36544 whole entry): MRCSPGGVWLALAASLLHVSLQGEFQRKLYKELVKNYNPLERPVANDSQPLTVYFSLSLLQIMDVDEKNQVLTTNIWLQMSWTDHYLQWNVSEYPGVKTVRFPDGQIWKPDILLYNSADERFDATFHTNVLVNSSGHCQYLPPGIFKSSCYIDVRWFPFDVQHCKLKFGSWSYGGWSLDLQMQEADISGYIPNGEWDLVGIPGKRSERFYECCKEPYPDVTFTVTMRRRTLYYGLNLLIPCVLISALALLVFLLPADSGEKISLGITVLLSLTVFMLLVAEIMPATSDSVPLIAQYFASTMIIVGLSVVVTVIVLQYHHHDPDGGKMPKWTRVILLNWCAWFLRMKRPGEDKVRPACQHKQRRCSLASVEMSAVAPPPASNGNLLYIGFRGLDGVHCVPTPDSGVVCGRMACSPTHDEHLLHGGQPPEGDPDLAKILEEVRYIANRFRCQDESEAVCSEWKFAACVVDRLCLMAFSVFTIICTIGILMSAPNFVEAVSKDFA

Q: Which IC50 does the source give for `CC1CC(=O)N(c2ccccc2C(=O)OCC2CCCN(CCc3ccccc3)C2)C1=O` (centres undefined) here?
A: 177000 nM

molecular target: Neuronal acetylcholine receptor subunit alpha-3 (Homo sapiens, UniProt P32297); test: Inhibitory activity on nicotinic acetylcholine receptor alpha3
Sequence (P32297 whole entry): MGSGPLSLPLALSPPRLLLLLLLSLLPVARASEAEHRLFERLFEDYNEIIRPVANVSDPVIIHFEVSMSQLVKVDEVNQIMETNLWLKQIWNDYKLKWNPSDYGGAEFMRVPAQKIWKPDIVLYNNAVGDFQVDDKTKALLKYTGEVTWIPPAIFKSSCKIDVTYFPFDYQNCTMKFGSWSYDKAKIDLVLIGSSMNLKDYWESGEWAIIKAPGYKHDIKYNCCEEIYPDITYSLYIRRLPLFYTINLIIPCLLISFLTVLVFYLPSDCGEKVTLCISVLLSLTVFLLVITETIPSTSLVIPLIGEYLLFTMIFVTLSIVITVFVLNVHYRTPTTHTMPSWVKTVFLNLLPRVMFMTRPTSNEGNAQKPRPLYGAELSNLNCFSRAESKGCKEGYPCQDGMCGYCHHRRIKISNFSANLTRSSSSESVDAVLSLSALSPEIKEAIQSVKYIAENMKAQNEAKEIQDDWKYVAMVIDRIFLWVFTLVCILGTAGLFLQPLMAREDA

Q: Which IC50 does the source give for `CC1CC(=O)N(c2ccccc2C(=O)OCC2CCCN(C(C)C)C2)C1=O` (centres undefined) here?
A: ~20000 nM

Q: With `CC(C)N1CCCC(COC(=O)c2ccccc2N2C(=O)CCC2=O)C1` (centres undefined) as the compound, how does the IC50 read?
A: ~20000 nM

molecular target: T1, Neuronal acetylcholine receptor; alpha3/beta4 (Homo sapiens, UniProt P30926+P32297); test: Inhibitory activity against nicotinic acetylcholine receptor alpha3-beta4; assay type: protein-complex assay
T1 sequence (P30926 whole entry): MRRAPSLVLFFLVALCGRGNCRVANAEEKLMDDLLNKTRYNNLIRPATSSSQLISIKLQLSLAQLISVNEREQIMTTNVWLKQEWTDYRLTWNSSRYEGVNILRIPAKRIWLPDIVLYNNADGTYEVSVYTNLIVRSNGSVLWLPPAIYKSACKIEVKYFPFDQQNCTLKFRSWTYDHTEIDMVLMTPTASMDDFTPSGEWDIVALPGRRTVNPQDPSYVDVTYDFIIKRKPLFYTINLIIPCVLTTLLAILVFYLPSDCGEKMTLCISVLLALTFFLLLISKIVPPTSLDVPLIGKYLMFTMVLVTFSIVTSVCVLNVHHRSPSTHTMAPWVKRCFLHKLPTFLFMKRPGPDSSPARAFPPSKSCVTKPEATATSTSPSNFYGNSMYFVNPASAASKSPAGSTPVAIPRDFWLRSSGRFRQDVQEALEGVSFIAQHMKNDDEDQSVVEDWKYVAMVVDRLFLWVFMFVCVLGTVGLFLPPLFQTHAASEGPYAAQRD
T1 sequence (P32297 whole entry): as the sequence (P32297 whole entry) above

Q: Which IC50 does the source give for `C[N+](C)(C)CCCCCC[N+](C)(C)C` [HEXAMETHONIUM HYDROXIDE] here?
A: ~1700 nM

Q: `C[N+](C)(C)CCCCCCCCCC[N+](C)(C)C` [DECAMETHONIUM] was tested. Which IC50 did it give?
A: ~1700 nM

Q: How did the IC50 turn out when `COc1cc2c3cc1Oc1cc(ccc1O)C[C@@H]1c4c(cc(OC)c(O)c4Oc4ccc(cc4)C[C@@H]3N(C)CC2)CC[N+]1(C)C` was run?
A: 2000 nM

molecular target: T1, Neuronal acetylcholine receptor; alpha3/beta4; test: Effect on alpha3-beta4 neuronal nicotinic acetylcholine receptor-stimulated adrenal catecholamine secretion; assay type: functional

Q: With `C=CCC1CC(=O)N(c2ccccc2C(=O)OCC2CCCN(CCCc3ccccc3)C2)C1=O` (centres undefined) as the compound, how does the IC50 read?
A: 1700 nM

Q: How did the IC50 turn out when `O=C(OCC1CCCN(CCCc2ccccc2)C1)c1ccc(-c2ccccc2)cc1` (centres undefined) was run?
A: 3000 nM

Q: Which IC50 does the source give for `O=C(OCC1CCCN(CCCc2ccccc2)C1)c1ccccc1C(F)(F)F` (centres undefined) here?
A: 3200 nM

Q: `O=C(OCC1CCCN(CCCc2ccccc2)C1)c1ccccc1N1C(=O)CC(C2CCCC2)C1=O` (centres undefined) was tested. Which IC50 did it give?
A: 1200 nM

Q: How did the IC50 turn out when `O=C(OCC1CCCN(CCCc2ccccc2)C1)c1ccccc1-c1ccccc1` (centres undefined) was run?
A: 1700 nM

Q: `COc1ccccc1C(=O)OCC1CCCN(CCCc2ccccc2)C1` (centres undefined) was tested. Which IC50 did it give?
A: 3200 nM

Q: Which IC50 does the source give for `CC1C(=O)N(c2ccccc2C(=O)OCC2CCCN(CCCc3ccccc3)C2)C(=O)C1C` (centres undefined) here?
A: 6000 nM

Q: Which IC50 does the source give for `CC1CC(=O)N(c2ccccc2C(=O)OCC2CCCN(CCc3ccccc3)C2)C1=O` (centres undefined) here?
A: 11400 nM

Q: `CCN1C[C@]2(COC(=O)c3ccccc3N3C(=O)C[C@H](C)C3=O)CC[C@H](OC)[C@@]34[C@@H]5C[C@H]6[C@H](OC)[C@@H]5[C@](O)(C[C@@H]6OC)[C@](O)([C@@H](OC)[C@H]23)[C@@H]14` [METHYLLYCACONITINE] was tested. Which IC50 did it give?
A: 2600 nM

Q: For `O=C(OCC1CCCN(CCCc2ccccc2)C1)c1ccccc1N1C(=O)CC(Cc2ccccc2)C1=O` (centres undefined), which IC50 is on record?
A: 1300 nM

Q: How did the IC50 turn out when `CC(C)C1CC(=O)N(c2ccccc2C(=O)OCC2CCCN(CCCc3ccccc3)C2)C1=O` (centres undefined) was run?
A: 2500 nM

Q: `O=C(OCC1CCCN(CCCc2ccccc2)C1)c1ccccc1F` (centres undefined) was tested. Which IC50 did it give?
A: 5200 nM

Q: `O=C(OCC1CCCN(CCCc2ccccc2)C1)c1ccccc1N1C(=O)c2ccccc2C1=O` (centres undefined) was tested. Which IC50 did it give?
A: 1300 nM

Q: Which IC50 does the source give for `CCC1CC(=O)N(c2ccccc2C(=O)OCC2CCCN(CCCc3ccccc3)C2)C1=O` (centres undefined) here?
A: 4500 nM

Q: How did the IC50 turn out when `CC(=O)Nc1ccccc1C(=O)OCC1CCCN(CCCc2ccccc2)C1` (centres undefined) was run?
A: 8400 nM

Q: How did the IC50 turn out when `CCCCC1CC(=O)N(c2ccccc2C(=O)OCC2CCCN(CCCc3ccccc3)C2)C1=O` (centres undefined) was run?
A: 1500 nM

Q: How did the IC50 turn out when `CC1(C)CC(=O)N(c2ccccc2C(=O)OCC2CCCN(CCCc3ccccc3)C2)C1=O` (centres undefined) was run?
A: 7500 nM

Q: With `CCCCCCCCC1CC(=O)N(c2ccccc2C(=O)OCC2CCCN(CCCc3ccccc3)C2)C1=O` (centres undefined) as the compound, how does the IC50 read?
A: 1300 nM
